Tested on: targetomes of let-7, miR-1, miR-9, miR-29, miR-30, miR-107 and miR-181
Assay: RNA-Seq of miRNA targetomes in DM myoblasts and myotubes
Format: cell-based, human
Method: As described in Example 3, total RNA was isolated from DM-patient and healthy cells, and cDNA libraries were prepared for three conditions (healthy volunteer (HV); DM; DM+Compound II) for DM1 and DM2 backgrounds. The expression levels of predicted targetomes of miRNAs let-7, miR-1, miR-9, miR-29, miR-30, miR-107 and miR-181 were then compared, using miR-122 as well as more than 2,000 transcripts that are not predicted targets of any miRNA as negative controls. Three pair-wise comparisons were performed to measure: i) how a targetome varies between healthy and diseased cells (HV versus DM), ii) how a targetome responds to treatment with the inventive compounds (DM versus DM+Compound II) and, iii) how a Compound II-treated DM-targetome compares to that of a healthy signature. For each pair-wise comparison, the third dataset was used as a reference and the fold changes were calculated for each target transcript (e.g. DM1 vs. DM1+Compound II, with fold changes calculated relative to HV).
Primary myoblasts or myotubes derived from DM1 or DM2 patient samples and non-DM healthy control individuals were cultured for 90% confluence and then treated with 120 μM Compound II for 72 h. Myoblasts were harvested by trypsinization, and separately myotubes were isolated by a minimal trypsin treatment followed by gentle centrifugation to sediments to separate them from the remaining mono-nucleated cells. Cell pellets were washed with PBS and RNA isolation was performed with Trizol® by using the Dircet-zol™ RNA MiniPrep Plus Kit (ZYMO Research, Freiburg, Germany). Library preparation was performed using the TruSeq Stranded mRNA Kit (Illumina, San Diego, CA, USA) with the TruSeq RNA Single Index Set A (Illumina) according to the recommended procedure. Quality and size distribution of the generated libraries was validated using an Agilent 2100 bioanalyzer with high-sensitivity RNA chip (Agilent) and RNA yield was measured using the Qubit […] HS Assay Kit followed by pooling of the libraries in batches of 12 and sequencing of […] pooled library on an Nextseq 500/High Output Flow Cell Cartridge using a paired end, 2×76 reads, single index protocol.
RNA-Seq reads were mapped to the human genome (build GRCh38) using STAR (Dobin et al., (2013). STAR: ultrafast universal RNA-seq aligner. Bioinformatics 29, 15-21) with gene annotations from gencode (www.gencodegenes.org; version 40). Reads mapping uniquely to exons were counted for each gene using htseq-count (Anders et al., (2015). HTSeq—a Python framework to work with high-throughput sequencing data. Bioinformatics 31, 166-169) with the parameter -s reverse and -m intersection_strict. Expression levels were quantified as TPM (transcripts per million), by dividing read counts by the total exon length for each gene, and then normalising by the sum of all values in each sample and multiplying by one million. Fold changes were calculated between the average expression levels in three conditions: DMSO-treated healthy volunteer samples (HV), DMSO-treated DM patient samples (DM), and Compound II-treated DM patient samples (DM+Compound II). Genes with an average TPM>1 were considered in each of these three conditions. For myoblasts, three samples were included for all conditions. For myotubes, three samples were included for the HV, DM1 and DM2 conditions, but two Compound II-treated samples were excluded (one DM1 and one DM2) due to a very low read count (<500000 exonic reads), resulting in […] and two DM2+Compound II myotube samples being included in the analysis. Cumulative density functions of expression changes of miRNA target genes were plotted using custom python scripts.

## CC(=O)N(C)c1cccc(-c2ccc3nnc(C)n3n2)c1 [Compound II]
DM1 and DM2 cells, FIGS. 5B, 5D, 6B and 6D
  shift of the targetomes of the miRNAs tested versus healthy volunteers: levels comparable to those of healthy volunteers
DM1 myoblasts, 120 μM, 72 h, RNA-Seq
  median suppression of the targetomes of let-7 and miRs -9, -1, -29, -30, -107, -181: 10-12%
DM1 myoblasts, FIG. 5B
  CDF curves of DM1+Compound II versus HV targetome signature for miR-1, miR-9, miR-29, miR-30 and miR-107: indistinguishable overlay
DM1 myotubes, 120 μM, 72 h, RNA-Seq
  median suppression of the seven miRNA targetomes: 12-15%
DM2 myoblasts, 120 μM, 72 h, RNA-Seq
  median suppression of the seven targetomes: 22-25%
DM2 myoblasts, FIG. 5D
  targetome shift versus HV signature: overshoot
DM2 myotubes, 120 μM, 72 h, RNA-Seq
  median suppression of the seven miRNA targetomes: 10-12%

Source: patent publication US20260224595A1, “COMPOUNDS FOR THE TREATMENT OF MYOTONIC DYSTROPHY” (ETH ZURICH, priority 2022, published 2026)
